Experimental data: ChEMBL document CHEMBL6078678, “Unveiling the Antimycobacterial Potential of Novel 4-Alkoxyquinolines: Insights into Selectivity, Mechanism of Action, and In Vivo Exposure” (J Med Chem, 2024)
In brackets after ≈: the same amount, converted by molar mass.

Tested on: Mycobacterium tuberculosis
Experiment: Antibacterial activity against 2-(quinolin-4-yloxy)acetamide resistant Mycobacterium tuberculosis harboring qcrB gene T313A mutant
Format: functional

## CCc1ccc(NCCCOc2cc(C)nc3ccc(Br)cc23)cc1
  MIC: 3.13 µM (≈ 1.25 µg/mL)
